Laboratory results as given in US7531567B2, “Use of a medicament containing an effector of the glutathione metabolism together with α-lipoic acid in kidney replacement therapy” (Serumwerk Bernburg AG, priority 2001, dated 2009).

Tests used:
Type in all cases: cell-based, human
[1] = system: lymphocytes (peripheral immune cells); test: intracellular thiol expression of peripheral immune cells (CMFDA flow cytofluorimetry); conditions: for intracellular thiol expression: α-lipoic acid 50 μM, captopril 10 μM, combination at the same concentrations
Description: Peripheral immune cells of healthy donors (n=9) were isolated from the peripheral blood by means of density gradient centrifugation. Lymphocytes having a donor-dependent relative proportion of about 90% in this case normally represent the main fraction of the resulting total population of mononuclear cells. 10% of the mononuclear cells are represented by monocytes. The mononuclear cells obtained were taken up in special cell culture media and incubated in a gas incubator at 37° C., a relative humidity of 98% and 5% relative air-CO2 content. The metabolism of the primarily resting immune cells was activated by means of mitogenic stimulation (0.5 μg/ml of phytohemagglutinin). In order to test the influence of the combinations used according to the invention on the thiol status of thiol-deficient immune cells, these were artificially thiol-depleted. This was carried out by culturing in thiol-deficient media (RPMI 1603) according to tested procedures. Comparison cultures using whole media (RPMI 1640) served for the definition of the best possible normal value under culture conditions. […] Primarily nonfluorogenic CMFDA is in this case passively taken up by the cell. Binding to cytoplasmic thiol groups takes place via the chloromethyl radical. After removal of the acetate radicals by nonspecific cellular esterases, this, now cell membrane-impermeable complex becomes fluorogenic at an excitation wavelength λex=490 nm with an emission wavelength λem=520 nm. The mean fluorescence intensity of the sample (10,000 cells) is directly proportional to the concentration of the intracellular thiol groups. In FIG. 1, the action of the combination of α-lipoic acid and ambroxole (FIG. 1a) and α-lipoic acid and enalapril (FIG. 1b) on the intracellular thiol expression of lymphocytes is shown. […] The data are shown as the ratio of the cellular fluorescence intensity for calibration particles (beads) in each case analyzed in parallel. The active compound concentration of the respective combination is identical to the concentrations of the individual components.

[2] = system: T lymphocytes; test: activation markers CD69, CD25, CD71 of phytohemagglutinin-stimulated T lymphocytes; conditions: thiol-deficient cells, culture period of 72 hours, FIG. 3
Description: In the culture batch described under example 1, human T lymphocytes were stimulated with […] of phyto-hemagglutinin. […] The influence of the combinations used according to the invention on the activation markers CD69 (early activation antigen), CD25 (intermediate activation antigen) and CD71 (late activation antigen) of T lymphocytes was investigated. In FIG. 3, the action of the combination of α-lipoic acid and ambroxole (FIG. 3a), and α-lipoic acid and enalapril (FIG. 3b) on the activation index of T lymphocytes is shown. Compared with normal T lymphocytes (activation index=1.0), in thiol-deficient cells a clear lowering of the activatability, confirming the cellular functional disorder, is to be noted. […] It can thus be concluded that the normalization of the cellular thiol status mediated by the combined use of α-lipoic acid and the respective effectors of the glutathione metabolism is accompanied by a restitution of the cellular functionality.

[3] = system: peritoneal macrophages; test: phagocytic ability of peritoneal macrophages (fluorochrome-labelled bacteria); conditions: treatment period of 6 days
Description: Peritoneal macrophages were isolated analogously to the procedure described under example 3 and cultured ex vivo. The determination of the phagocytic power was carried out by means of a cytofluorometric test at the individual cell level. In this test, the macrophages were cocultured with opsonized and fluorochrome-labelled bacteria. The amount of bacteria taken up in a defined time period was recorded quantitatively by means of the fluorescence intensity in the macrophages and was regarded as a measure of their phagocytic capacity. The influence of the combinations used according to the invention on the phagocytic ability of the peritoneal macrophages after a treatment period of 6 days is presented in Table 3.

[4] = system: peritoneal macrophages; test: cytokine synthesis of peritoneal macrophages (enzyme immunoassay); conditions: treatment period of 6 days (n=10); α-lipoic acid 50 μM, ambroxole 10 μM, enalapril 5 μM, captopril 10 μM
Description: In parallel to this, in this experimental batch the cell culture supernatants were recovered and the cytokines interleukin-6 (IL-6) and interleukin-1 receptor antagonist (IL-1ra) contained therein, synthesized and secreted by the peritoneal macrophages, were determined.

[5] = system: peritoneal macrophages; test: stability of membrane-bound thiol restitution in peritoneal macrophages in the dialysis model; conditions: dialysis model over 14 days; FIG. 7
Description: The peritoneal macrophages described under example 3, which were thiol-restituted by means of the combinations used according to the invention, were removed from this test system after 6 days and cultured in a dialysis model over a period of 14 days. For this, the peritoneal macrophages were adapted to mobile collagen IV-coated matrices and brought into contact with conventional dialysis solution 3 times daily for 60 minutes each. This model served here for the induction of a combined […]/osmotic stress. In FIG. 6, the action of the combination of α-lipoic acid and ambroxole (FIG. 6a), and α-lipoic acid and enalapril (FIG. 6b) on the intracellular thiol expression of the peritoneal macrophages in the time kinetics is presented. The membrane expression of thiols was determined by means of the mean fluorescence intensity (mfi) of the sample (3000 cells/measurement) after coupling to a chloro-methylfluorochrome derivative.

O=C(O)CCCCC1CCSS1 (stereo not drawn) [α-lipoic acid]
intracellular thiol expression ([1]; culture period 0 d): 2.88 ± 0.20 mfiBeads/Ratio | intracellular thiol expression ([1]; culture period 1 d): 2.81 ± 0.23 mfiBeads/Ratio | intracellular thiol expression ([1]; culture period 2 d): 2.76 ± 0.50 mfiBeads/Ratio | intracellular thiol expression ([1]; culture period 3 d): 2.63 ± 0.60 mfiBeads/Ratio | intracellular thiol expression ([1]; culture period 4 d): 2.41 ± 0.40 mfiBeads/Ratio | intracellular thiol expression ([1]; culture period 6 d): 2.23 ± 0.50 mfiBeads/Ratio | intracellular thiol expression ([1]; culture period 8 d): 2.02 ± 0.30 mfiBeads/Ratio | intracellular thiol expression ([1]; culture period 10 d): 1.89 ± 0.30 mfiBeads/Ratio | intracellular thiol expression ([1]; culture period 12 d): 1.86 ± 0.68 mfiBeads/Ratio | intracellular thiol expression ([1]; culture period 14 d): 1.83 ± 0.60 mfiBeads/Ratio | effect on the intracellular thiol deficit (in words) ([1]; thiol-deficient conditions (1603), FIG. 1): Neither by α-lipoic acid alone nor by the individual application of the effectors was a complete equalization of the thiol deficit possible | effect on the activation index of T lymphocytes (in words) [2]: slight improvement in the cellular activatability | increase in the phagocytosis rate in relation to the untreated control, factor [3]: 1.85 | Phagocytosis rate ([3]; α-lipoic acid 50 μM, ambroxole 10 μM, enalapril 5 μM, captopril 10 μM): 687 ± 59 mfi/10,000 cells | IL-1ra [4]: 119.8 ± 19.5 ng/10^6 cells | IL-6 [4]: 46.9 ± 6.7 ng/10^6 cells | membrane-bound thiol expression in the dialysis model (in words) [5]: intermediate
